Test results: patent US7514251B2, “O-methyltransferases of tetrahydrobenzylisoquinoline alkaloid biosynthesis in Papaver somniferum” (priority 2003, dated 2009)
Marks after values point to notes of the source that are not given here.

molecular target: T1, PSOMT1 ((R,S)-reticuline 7-O-methyltransferase) (Papaver somniferum, UniProt Q6WUC2); test: not given; type: biochemical; conditions: 100% activity = 1.5 pmoles/sec/mg total protein; radioassay
T1 construct: The full-length cDNA generated by RT-PCR was ligated into pFastBac HTa; His6 (N); made in house; host or cells: Spodoptera frugiperda Sf9 (baculovirus, pFastBac HTa)
T1 sequence (Q6WUC2 whole entry): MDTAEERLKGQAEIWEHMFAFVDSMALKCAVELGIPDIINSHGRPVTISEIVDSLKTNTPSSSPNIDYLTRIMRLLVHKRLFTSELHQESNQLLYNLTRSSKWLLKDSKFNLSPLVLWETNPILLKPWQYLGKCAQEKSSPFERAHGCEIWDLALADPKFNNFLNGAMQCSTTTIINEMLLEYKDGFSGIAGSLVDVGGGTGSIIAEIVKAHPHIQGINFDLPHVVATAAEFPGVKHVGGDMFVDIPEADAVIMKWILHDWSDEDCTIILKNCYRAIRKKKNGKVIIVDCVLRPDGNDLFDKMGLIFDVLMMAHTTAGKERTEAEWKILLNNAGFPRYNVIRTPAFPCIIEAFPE
Description: (§1) Heterologous Expression and Enzyme Purification—The full-length cDNA generated by RT-PCR was ligated into pFastBac HTa that had been digested with restriction endonucleases BamHI and NotI. The recombinant plasmid was transposed into baculovirus DNA in the Escherichia coli strain DH10BAC (Life Technologies) and then transfected into Spodoptera frugiperda Sf9 cells according to the manufacturer's instructions. The insect cells were propagated and the recombinant virus was amplified according to (16,17). INSECT-XPRESS serum-free medium (Bio Whittaker) was used in the enzyme expression experiments.
(§2) After infection of 20 ml suspension grown insect cells had proceded for 3-4 days at 28° C. and 130 rpm, the cells were removed by centrifugation under sterile conditions at 900× g for 5 min at 4° C. All subsequent steps were performed at 4° C. The pellet was discarded and to the medium was added 0.73 g NaCl, 2.5 ml glycerol and 50 μl […]-mercaptoethanol. The pH was adjusted to 7.0 with 1.0 M NaOH. The His-tagged O-methyltransferase was then purified by affinity chromatography using a cobalt resin (Talon, Clontech) according to the manufacturer's instructions.
(§3) Enzyme assay and product identification: The O-methylation reactions catalysed by the two O-methyltransferases were assayed at least two times in duplicate according to Rüffer et al. (1983a; 1983b) as follows. Substrate (25 nmol), [methyl-3H]-AdoMet (20,000 dpm, 0.4 fmol), AdoMet (10 nmol) Tris/HC1 buffer pH 8.0 (10 μmol), ascorbate (5 μmol) and 5-10 μg of enzyme were incubated in a total volume of 150 μl at 35° C. for 5-60 min. The enzymic reaction was terminated by addition of 200 μl ethylacetate. The organic phase ([…]) was added to 3 ml high flash point liquid scintillation cocktail (Packard) and the radioactivity quantified with a Beckman LS6000TA liquid scintillation counter.
(§4) General Methods—Total RNA was isolated and RNA gels were run and blotted as described previously (20). Genomic DNA was isolated and DNA gels were run and blotted according to (21). cDNA clones were labeled by PCR labeling with [[…]-^32P]dATP. Hybridized RNA on RNA gel blots and DNA on DNA gel blots were visualized with a STORM phosphor imager (Molecular Dynamics). The entire nucleotide sequence on both DNA strands of the full-length clone was determined by dideoxy cycle sequencing using internal DNA sequences for the design of deoxyoligonucleotides as sequencing primers. Saturation curves and double reciprocal plots were constructed with the Fig. P program Version 2.7 (Biosoft, Cambridge, UK). The influence of pH on enzyme activity was monitored in sodium citrate (pH 4-6), sodium phosphate (pH 6-7.0) and Tris-HCl (pH 7.0-9), glycine/NaOH (pH 9-10.5) buffered solutions.

SMILES	Substrate specificity, relative activity of PSOMT1
COc1ccc(C[C@@H]2NCCc3cc(O)c(OC)cc32)cc1O [(S)-Norprotosinomenine]	0%
COc1cc(C[C@@H]2c3cc(O)c(OC)cc3CCN2C)ccc1O (racemic) [(R,S)-Orientaline]	48%
COc1ccc(C[C@H]2c3cc(O)c(OC)cc3CCN2C)cc1O [(S)-Reticuline]	100^a %
COc1ccc(C[C@@H]2c3cc(OC)c(O)cc3CCN2C)cc1O [(R)-Protosinomenine]	52%

same assay, conditions: PSOMT1

SMILES	Vmax Substrate	kcat Substrate	pH optimum of methylation	ratio kcat/Km	temperature optimum
COc1ccc(C[C@H]2c3cc(O)c(OC)cc3CCN2C)cc1O [(S)-Reticuline]	4 pmol/s	0.07 s⁻¹	8.0	4500 M⁻¹ s⁻¹	37 °C
COc1ccc(C[C@@H]2c3cc(OC)c(O)cc3CCN2C)cc1O [(R)-Protosinomenine]	2 pmol/s	0.03 s⁻¹	9.0	1670 M⁻¹ s⁻¹	39 °C

same assay, conditions: PSOMT1; co-substrate AdoMet with the named substrate; read-out: Km AdoMet

SMILES	Km
COc1ccc(C[C@H]2c3cc(O)c(OC)cc3CCN2C)cc1O [(S)-Reticuline]	360 µM
COc1ccc(C[C@@H]2c3cc(OC)c(O)cc3CCN2C)cc1O [(R)-Protosinomenine]	320 µM

same assay, conditions: PSOMT1; read-out: Km Substrate

SMILES	Km
COc1ccc(C[C@H]2c3cc(O)c(OC)cc3CCN2C)cc1O [(S)-Reticuline]	16 µM
COc1ccc(C[C@@H]2c3cc(OC)c(O)cc3CCN2C)cc1O [(R)-Protosinomenine]	16 µM

same assay, conditions: one of forty substrates tested

SMILES	methylated by PSOMT1 (radioassay, in words)
COc1cc(C[C@@H]2c3cc(O)c(OC)cc3CCN2C)ccc1O (racemic) [(R,S)-Orientaline]	methylates
COc1ccc(C[C@H]2c3cc(O)c(OC)cc3CCN2C)cc1O [(S)-Reticuline]	methylates
COc1ccc(C[C@@H]2c3cc(OC)c(O)cc3CCN2C)cc1O [(R)-Protosinomenine]	methylates

molecular target: T2, PSOMT2 ((R,S)-norcoclaurine 6-O-methyltransferase) (Papaver somniferum, UniProt Q6WUC1); test: Radioassay of recombinant PSOMT2 with [methyl-3H]-AdoMet (substrate specificity, kinetics, pH and temperature optima); type: biochemical; conditions: 100% activity = 2.0 pmoles/sec/mg total protein; radioassay
T2 construct: The full-length cDNA generated by RT-PCR was ligated into pFastBac HTa; His6 (N); made in house; host or cells: Spodoptera frugiperda Sf9 (baculovirus, pFastBac HTa)
T2 sequence (Q6WUC1 1-346): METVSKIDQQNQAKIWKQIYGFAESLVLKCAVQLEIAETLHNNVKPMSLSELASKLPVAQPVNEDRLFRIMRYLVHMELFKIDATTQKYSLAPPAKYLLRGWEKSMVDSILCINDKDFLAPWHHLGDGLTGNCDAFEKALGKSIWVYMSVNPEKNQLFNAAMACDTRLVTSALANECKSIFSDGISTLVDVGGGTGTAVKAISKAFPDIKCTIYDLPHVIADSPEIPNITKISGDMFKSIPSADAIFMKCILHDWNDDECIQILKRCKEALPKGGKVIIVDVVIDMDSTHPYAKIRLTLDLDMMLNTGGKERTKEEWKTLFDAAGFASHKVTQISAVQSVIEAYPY
Description: as §1, §2, §3, §4

SMILES	Substrate specificity, relative activity of PSOMT2
COc1ccc(C[C@@H]2NCCc3cc(O)c(OC)cc32)cc1O [(S)-Norprotosinomenine]	26%
COc1cc(C[C@@H]2c3cc(O)c(OC)cc3CCN2C)ccc1O (racemic) [(R,S)-Orientaline]	0%
COc1ccc(C[C@H]2c3cc(O)c(OC)cc3CCN2C)cc1O [(S)-Reticuline]	0%
COc1ccc(C[C@@H]2c3cc(OC)c(O)cc3CCN2C)cc1O [(R)-Protosinomenine]	0%

same assay, conditions: PSOMT2

SMILES	Vmax Substrate	kcat Substrate	kcat/Km ratio relative to that obtained for (R,S)-norcoclaurine	pH optimum of methyl transfer
COc1ccc(C[C@@H]2NCCc3cc(O)c(OC)cc32)cc1O [(S)-Norprotosinomenine]	1 pmol/s	0.02 s⁻¹	55%	7.5

same assay, conditions: PSOMT2; co-substrate AdoMet with the named substrate; read-out: Km AdoMet

SMILES	Km
COc1ccc(C[C@@H]2NCCc3cc(O)c(OC)cc32)cc1O [(S)-Norprotosinomenine]	260 µM

same assay, conditions: PSOMT2; read-out: Km Substrate

SMILES	Km
COc1ccc(C[C@@H]2NCCc3cc(O)c(OC)cc32)cc1O [(S)-Norprotosinomenine]	5 µM

same assay, conditions: one of forty substrates tested

SMILES	methylated by PSOMT2 (radioassay, in words)
COc1ccc(C[C@@H]2NCCc3cc(O)c(OC)cc32)cc1O [(S)-Norprotosinomenine]	methylating

molecular target: T1, PSOMT1 ((R,S)-reticuline 7-O-methyltransferase); test: HPLC-MS identification of enzymic products of PSOMT1; type: biochemical; conditions: HPLC-MS of enzymic product
Procedure: (§5) The identity of the enzymic reaction products was ascertained by HPLC-MS using a Finnigan MAT TSQ 7000 (electrospray voltage 4.5 kV, capillary temperature 220° C., carrier gas N2) coupled to a Micro-tech Ultra-Plus Micro-LC equipped with an Ultrasep RP18 column; 5 μm; 1×10 mm), Solvent system (A) 99.8% (v/v) H2O, 0.2% HOAc (B) 99.8% CH3CN (v/v), 0.2% HOAc; gradient: 0-15 min 10-90% B, 15-25 min 90% B; flow 70 μl min^−1). The collision-induced dissociation (CID; collision energy, −25 eV; collision gas, argon; collision pressure, 1.8×10^−3 Torr) mass spectra for the tetrahydrobenzylisoquinoline alkaloids were recorded.
(§6) Structure Elucidation of Enzymic Products—Initial enzyme activity measurements were carried out using a radioassay. Many of the substrates tested contained more than one site of potential methylation. […] Tetrahydrobenzylisoquinolines readily cleave at low ionization energies into the corresponding isoquinoline- and benzyl ions. This enables identification of methylation at either moiety. Each alkaloidal substrate was monitored for purity by HLPC-MS and the fragmentation pattern was determined. Enzymic product fragmentation patterns were then compared to those of substrate. All substrates were methylated by either PSOMT1 or PSOMT2 on the isoquinoline moiety. For example, (R)- or (S)-reticuline ([M+H]^+ m/z 330) has the major fragment ions m/z 192 (isoquinoline) and m/z 137 (benzyl). The methylation of (R)- or (S)-reticuline by PSOMT1 results in a product of [M+H]^+ m/z 344 (methylated (R)- or (S)-reticuline) with fragment ions at m/z 206 (isoquinoline+CH2) and m/z 137 (unmodified benzyl). Likewise, (R,S)-norcoclaurine ([M+H]^+ m/z 272) has the major fragment ions m/z 161 (isoquinoline) and m/z 107 (benzyl). The methylation of (R,S)-norcoclaurine by PSOMT2 results in a product of [M+H]^+ m/z 286 (methylated (R,S)-norcoclaurine) with fragment ions at m/z 175 (isoquinoline+CH2) and m/z 107 (unmodified benzyl).

SMILES	position of O-methylation by PSOMT1
COc1cc(C[C@@H]2c3cc(O)c(OC)cc3CCN2C)ccc1O (racemic) [(R,S)-Orientaline]	O-methylated at C-7
COc1ccc(C[C@H]2c3cc(O)c(OC)cc3CCN2C)cc1O [(S)-Reticuline]	O-methylated at C-7
COc1ccc(C[C@@H]2c3cc(OC)c(O)cc3CCN2C)cc1O [(R)-Protosinomenine]	O-methylated by PSOMT1 at C-6

same assay, conditions: PSOMT1; main product 7-O-methylorientaline

SMILES	share of product that is double methylated 7,4′-O-dimethylorientaline (laudanosine) and monomethylated 4′-O-methylorientaline
COc1cc(C[C@@H]2c3cc(O)c(OC)cc3CCN2C)ccc1O (racemic) [(R,S)-Orientaline]	Approximately 1%

molecular target: T2, PSOMT2 ((R,S)-norcoclaurine 6-O-methyltransferase); test: HPLC-MS identification of enzymic products of PSOMT2; type: biochemical; conditions: HPLC-MS of enzymic product
Procedure: as §5, §6

SMILES	position of O-methylation by PSOMT2
COc1ccc(C[C@@H]2NCCc3cc(O)c(OC)cc32)cc1O [(S)-Norprotosinomenine]	at C-6
